The NIST ThermoML archive (doi:10.1016/j.jct.2009.08.009)

Assay: xn = mol fraction of the nth substance listed
Conditions: 101 kPa, Liquid; for viscosity: Capillary tube (Ostwald / Ubbelohde) method; for speed of sound: Sing-around technique in a fixed-path interferometer; for mass density: Vibrating tube method

CCOCCOCCO [3,6-dioxa-1-octanol] + CCCCCCCCO
Conditions | mass density [kg/m3] | speed of sound [m/s] | viscosity [mPa·s]
293.15 K, x1 = 0.0518 | 832.339 | 1364.1 | 7.468
293.15 K, x1 = 0.1011 | 839.204 | 1363.5 | 6.913
293.15 K, x1 = 0.1625 | 848.155 | 1363.1 | 6.159
293.15 K, x1 = 0.1944 | 853.018 | 1363.7 | 5.913
293.15 K, x1 = 0.2538 | 862.076 | 1364.5 | 5.872
293.15 K, x1 = 0.3165 | 872.254 | 1365.7 | 5.104
293.15 K, x1 = 0.3685 | 880.933 | 1370.8 | 4.837
293.15 K, x1 = 0.4975 | 904.111 | 1377.4 | 4.361
293.15 K, x1 = 0.6048 | 925.139 | 1387.7 | 4.08
293.15 K, x1 = 0.7202 | 949.653 | 1399.5 | 3.846
293.15 K, x1 = 0.8165 | 971.878 | 1415.1 | 3.739
293.15 K, x1 = 0.9144 | 996.047 | 1349.4 | 3.66
293.15 K, x1 = 1 | – | – | 3.626
298.15 K, x1 = 0.0518 | 828.835 | 1347.1 | 6.198
298.15 K, x1 = 0.1011 | 835.659 | 1346.5 | 6.03
298.15 K, x1 = 0.1625 | 844.559 | 1346.3 | 5.405
298.15 K, x1 = 0.1944 | 849.396 | 1346.7 | 5.188
298.15 K, x1 = 0.2538 | 858.398 | 1347.6 | 4.799
298.15 K, x1 = 0.3165 | 868.522 | 1348.9 | 4.489
298.15 K, x1 = 0.3685 | 877.154 | 1354.1 | 4.279
298.15 K, x1 = 0.4975 | 900.211 | 1360.7 | 3.918
298.15 K, x1 = 0.6048 | 921.137 | 1370.9 | 3.612
298.15 K, x1 = 0.7202 | 945.535 | 1382.7 | 3.431
298.15 K, x1 = 0.8165 | 991.74 | 1398.2 | 3.328
298.15 K, x1 = 0.9144 | 938.234 | 1332.2 | 3.277
298.15 K, x1 = 1 | – | – | 3.278
303.15 K, x1 = 0.0518 | 825.317 | 1330.3 | 5.429
303.15 K, x1 = 0.1011 | 832.097 | 1329.8 | 5.005
303.15 K, x1 = 0.1625 | 840.951 | 1329.5 | 4.636
303.15 K, x1 = 0.1944 | 845.762 | 1329.6 | 4.404
303.15 K, x1 = 0.2538 | 854.713 | 1330.1 | 4.295
303.15 K, x1 = 0.3165 | 864.78 | 1330.9 | 3.845
303.15 K, x1 = 0.3685 | 873.364 | 1332.3 | 3.67
303.15 K, x1 = 0.4975 | 896.3 | 1337.5 | 3.396
303.15 K, x1 = 0.6048 | 917.122 | 1343.9 | 3.141
303.15 K, x1 = 0.7202 | 941.409 | 1354.3 | 3.045
303.15 K, x1 = 0.8165 | 963.444 | 1381.3 | 2.904
303.15 K, x1 = 0.9144 | 987.41 | 1315 | 2.848
303.15 K, x1 = 1 | – | – | 2.862
308.15 K, x1 = 0.0518 | 821.777 | 1313.7 | 4.542
308.15 K, x1 = 0.1011 | 828.522 | 1313.2 | 4.219
308.15 K, x1 = 0.1625 | 837.324 | 1312.9 | 3.897
308.15 K, x1 = 0.1944 | 842.106 | 1312.9 | 3.781
308.15 K, x1 = 0.2538 | 851.006 | 1313.5 | 3.548
308.15 K, x1 = 0.3165 | 861.019 | 1314.5 | 3.327
308.15 K, x1 = 0.3685 | 869.558 | 1315.7 | 3.169
308.15 K, x1 = 0.4975 | 892.371 | 1320.9 | 2.928
308.15 K, x1 = 0.6048 | 913.092 | 1327.4 | 2.721
308.15 K, x1 = 0.7202 | 937.267 | 1337.7 | 2.6
308.15 K, x1 = 0.8165 | 959.204 | 1349.3 | 2.532
308.15 K, x1 = 0.9144 | 983.069 | 1364.5 | 2.493
308.15 K, x1 = 1 | – | – | 2.507

CCCCCCO [hexan-1-ol] + CCOCCOCCO
x2 = 0
Conditions | viscosity [mPa·s]
293.15 K | 4.963
298.15 K | 4.439
303.15 K | 3.675
308.15 K | 3.108
